Assay results taken from patent US9856304B2, “Peptide and application thereof” (Saitama Medical University, priority 2013, dated 2018).

What was measured:
[1] = system: human iPS cells (200-9 cells, TIG3/KOSM cells, 253G1 cells); experiment: Differentiation induction of human iPS cells into pancreatic hormone-producing cells (1), immunostaining; type: cell-based; conditions: 3 nM betagenin in step (D2), vs DMSO control, FIG. 3
Excerpt: (§1) As human iPS cells, used were 253G1 cells purchased from the cell bank at RIKEN, TIG3/KOSM cells provided by Dr. Mitani at Saitama Medical University, 200-9 cells, a clone in which a reporter gene is introduced into TIG3/KOSM cells. TIG3/KOSM cells were established at The National Institute of Advanced Industrial Science and Technology by introducing 4 factors (the OCT gene, the KLF gene, the SOX gene, the MYC gene) into TIG-3 cells using Sendai virus (Nishimura, K. et al., J. Biol. Chem., 286, pp. 4760-4771 (2011)).
(§2) These cells were cultured/maintained in an ES cell culture medium (DMEM/ham F12, 20% KSR, nonessential amino acid, 2 mM L-glutamine, 0.1 mM 2-mercaptoethanol, 5.2 mM NaOH) with added 4 ng/mL FGF-2 (Global Stem) and penicillin/streptomycin (Nacalai Tesque, Inc.) along with SNL76/7 cells (DS Pharma Biomedical) treated with mitomycin-C. CTK (0.25% trypsin, 1 mg/mL collagenase IV, 20% KSR, 1 mM CaCl2 in PBS) was used for cell detachment, and diluted at a ratio of 1:3 to 1:4 to perform passage culture.
Cells were detached with trypsin-EDTA 3 days before the start of differentiation induction, and plated at a cell density of 6.3×10^4 cells/cm2, and cultured for 1 day in an ES cell culture medium with added 10 μM Y-27632 (Wako), 4 ng/mL FGF-2 and penicillin/streptomycin along with STO cells treated with mitomycin-C. Subsequently, they were further cultured for 2 days in an ES cell culture medium with added 4 ng/mL FGF-2 and penicillin/streptomycin.
On the first day of the start of differentiation induction, the culture medium was replaced with a RPMI1640 culture medium (Nacalai Tesque, Inc.) with added 2% (v/v) FBS, 100 ng/mL activin A (SBI) and 3 μM CHIR99021 (Axon Medchem), and cultured for 1 day (Step (A2)).
Subsequently, the culture medium was replaced with a RPMI1640 culture medium with added 2% (v/v) FBS and 100 ng/mL activin A, and cultured for 2 days (Step (B2)). […]
Then, the proportion (%) of C-peptide positive cells or insulin positive cells was determined using an image analyzer CellInsight (Thermo Fisher Scientific).

[2] = system: human iPS cells (253G1 cells); experiment: Differentiation induction of human iPS cells into pancreatic hormone-producing cells (1), quantitative RT-PCR; type: cell-based; conditions: 3 nM betagenin in step (D2), 11 days, vs DMSO control, Day 10 cells taken as 1, FIG. 2
Excerpt: as §1
as §2, with “CTK (0.25% trypsin, 1 mg/mL collagenase IV, 20% KSR, 1 mM CaCl2 in PBS) was used for cell detachment, and diluted at a ratio of 1:3 to 1:4 to perform passage culture.” left out
The gene expression of insulin was confirmed by quantitative RT-PCR for the cells (n=2 for each of the betagenin addition group and the control group) obtained from 253G1 cells via the above steps (A2) to (D2). Specifically, total RNA was first extracted from the cells using a SV Total RNA Isolation System (Promega), and reverse transcription reactions were performed with BioScript™ transcriptase (Bioline), and then quantitative PCR analysis was performed using SYBR™ Green PCR Master Mix (Applied Biosystems). […]

betagenin: chemically synthesized peptide of SEQ ID NO: 1, fragment of human TM4SF20 from Position 170 to Position 229 (WRASSFHFDSEENKHRLIHFSVFLGLLLVGILEVLFGLSQIVIGFLGCLCGVSKRRSQIV; Peptide Sequence betagenin; listed as Homo sapiens)
increased: proportion of C-peptide positive cells or insulin positive cells ([1]; 200-9 cells) | proportion of C-peptide positive cells or insulin positive cells ([1]; 253G1 cells) | proportion of C-peptide positive cells or insulin positive cells ([1]; TIG3/KOSM cells) | amount of insulin expression (relative) [2]
